US20200231638A1, “STABILIZED ANTI-MICROBIAL PEPTIDES” (priority 2015, published 2020)
Converted amounts (≈) assume the structure as drawn. Bridge positions count the residues as written; N and C are the ends. Square brackets hold non-standard residues; d marks the D form. Ends that are not written are not given here. Peptide text beside a SMILES is read from it. R8 = C=CCCCCCC[C@@](C)(N)C(=O)O; S5 = C=CCCC[C@](C)(N)C(=O)O; Nle = CCCC[C@H](N)C(=O)O

Legend:
E. coli = type: cell-based, Escherichia coli
Outline: (§1)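 Microdilution MIC test in polyanion-depleted MHB, with a final inoculum of 5×10^5 CFU/ml and 20-24 h incubation at 37° C.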

S. marcescens = type: cell-based
Method: Antimicrobial Activity Assay:
The following microbroth dilution protocol was adapted to determine the minimum inhibitory concentration (MIC) of each peptide. First, Mueller-Hinton broth (MHB) was passed through an anion exchange column to remove polyanionic species and generate refined MHB. […] Briefly, bacterial cells was grown overnight in refined MHB at 37° C. and then diluted and allowed to grow again for several hours. Serial dilutions of peptide stocks in water (10 μl) were prepared using clear round-bottom polypropylene 96-well plates. Then 90 μl of bacteria in refined MHB was added to give a final inoculum of 5×10^5 CFU/ml. The plates were then covered with porous tape to reduce evaporation, and incubated for 20-24 hours at 37° C. The MIC is the minimum peptide concentration at which no visible growth was observed.

B. cereus = type: cell-based, Bacillus cereus
Outline: as §1

[1] = Circular dichroism spectroscopy (α-helicity); type: physicochemical; settings: for α-helicity by CD in water, absence of TFE: aqueous solution, no TFE; for α-helicity by CD in the presence of TFE: TFE 50% v/v
Method: To determine the helicity of the panel of stapled magainin II analogues, the peptides were dissolved in water using CD spectroscopy in the presence and absence of trifluoroethanol (TFE; 50% v/v), a helix-promoting solvent. […] Levels of helicity ranged from approximately 34% for MagStap 2 to 100% for MagStap 1 and 3, as compared to an idealized α-helical peptide. […] When the helicity in the presence of TFE was measured, most of the stapled analogues were 50-60% helical except for MagStap 3, which retained 100% α-helical content.
Circular Dichroism Spectroscopy:
Compounds were dissolved in an aqueous solution (e.g. 5 mM potassium phosphate solution at pH 7, or distilled H2O, to concentrations of 25-50 μM). Circular dichroism (CD) spectra were obtained on a spectropolarimeter (Aviv) using standard measurement parameters (e.g., temperature, 37° C.; wavelength, 190-260 nm; step resolution, 0.5 nm; speed, 20 nm/sec; accumulations, 10; response, 1 sec; bandwidth, 1 nm; path length, 0.1 cm). The α-helical content of each peptide was calculated by dividing the mean residue ellipticity by the reported value for a model helical decapeptide (see, e.g., Yang et al., Meth Enzymol. 130:208 (1986)).

S. aureus = type: cell-based, Staphylococcus aureus
Outline: as §1

P. aeruginosa = type: cell-based, Pseudomonas aeruginosa
Outline: as §1

human red blood cells = type: cell-based
Outline: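 Washed human RBCs as 1% (v/v) suspension in phosphate-buffered saline incubated 1 h at 37° C with serially diluted peptides. Hemoglobin release in supernatant measured spectrophotometrically (570 nm), % hemolysis relative to untreated and 1% Triton-X100 controls; MHC defined as concentration giving less than 1% release.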

Row | Compound | MIC E. coli (E. coli) | MIC S. marcescens (S. marcescens) | MIC B. cereus (B. cereus) | α-helicity by CD in water, absence of TFE [1] | α-helicity by CD in the presence of TFE [1] | MIC S. aureus (S. aureus) | MIC P. aeruginosa (P. aeruginosa) | hemolytic activity (in words) (human red blood cells)
1 | CCCC[C@H](NC(=O)[C@@H](NC(=O)[C@H](CCC(=O)O)NC(=O)[C@H](C)NC(=O)[C@@H](NC(=O)[C@H](Cc1ccccc1)NC(=O)[C@H](C)NC(=O)[C@]1(C)CCCC=CCCCCCC[C@@](C)(NC(=O)[C@H](CC(C)C)NC(=O)[C@H](Cc2ccccc2)NC(=O)[C@H](CCCCN)NC(=O)CNC(=O)[C@@H](NC(=O)CN)[C@@H](C)CC)C(=O)N[C@@H](C)C(=O)N[C@@H](C)C(=O)N[C@@H](CCCCN)C(=O)N[C@@H](CCCCN)C(=O)N[C@@H](Cc2ccccc2)C(=O)N[C@@H](C)C(=O)N1)C(C)C)[C@@H](C)CC)C(=O)N[C@@H](CC(N)=O)C(=O)N[C@@H](CO)C(N)=O [MagStap 1] (H-GIGKFL[R8]AAKKFA[S5]AFVAEI[Nle]NS-NH2; staple 7-14; N-terminus assumed) | 12.5 µg/mL (≈ 5.03 µM) | >50 µg/mL | 12.5 µg/mL (≈ 5.03 µM) | 100% |  |  |  | 
2 | CCCC[C@H](NC(=O)[C@@H](NC(=O)[C@H](CCC(=O)O)NC(=O)[C@H](C)NC(=O)[C@@H](NC(=O)[C@H](Cc1ccccc1)NC(=O)[C@]1(C)CCCC=CCCCCCC[C@@](C)(NC(=O)[C@H](Cc2c[nH]cn2)NC(=O)[C@H](CC(C)C)NC(=O)[C@H](Cc2ccccc2)NC(=O)[C@H](CCCCN)NC(=O)CNC(=O)[C@@H](NC(=O)CN)[C@@H](C)CC)C(=O)N[C@@H](C)C(=O)N[C@@H](CCCCN)C(=O)N[C@@H](CCCCN)C(=O)N[C@@H](Cc2ccccc2)C(=O)N[C@@H](C)C(=O)N[C@@H](CCCCN)C(=O)N1)C(C)C)[C@@H](C)CC)C(=O)N[C@@H](CC(N)=O)C(=O)N[C@@H](CO)C(N)=O [MagStap 2] (H-GIGKFLH[R8]AKKFAK[S5]FVAEI[Nle]NS-NH2; staple 8-15; N-terminus assumed) | 3.1 µg/mL (≈ 1.19 µM) | >50 µg/mL | 3.1 µg/mL (≈ 1.19 µM) | approximately 34% |  |  |  | 
3 | CCCC[C@H](NC(=O)[C@@H](NC(=O)[C@H](CCC(=O)O)NC(=O)[C@H](C)NC(=O)[C@@H](NC(=O)[C@]1(C)CCCC=CCCCCCC[C@@](C)(NC(=O)[C@H](C)NC(=O)[C@H](Cc2c[nH]cn2)NC(=O)[C@H](CC(C)C)NC(=O)[C@H](Cc2ccccc2)NC(=O)[C@H](CCCCN)NC(=O)CNC(=O)[C@@H](NC(=O)CN)[C@@H](C)CC)C(=O)N[C@@H](CCCCN)C(=O)N[C@@H](CCCCN)C(=O)N[C@@H](Cc2ccccc2)C(=O)N[C@@H](C)C(=O)N[C@@H](CCCCN)C(=O)N[C@@H](C)C(=O)N1)C(C)C)[C@@H](C)CC)C(=O)N[C@@H](CC(N)=O)C(=O)N[C@@H](CO)C(N)=O [MagStap 3] (H-GIGKFLHA[R8]KKFAKA[S5]VAEI[Nle]NS-NH2; staple 9-16; N-terminus assumed) | 3.1 µg/mL (≈ 1.22 µM) | >50 µg/mL | 6.2 µg/mL (≈ 2.45 µM) | 100% | 100% |  |  | 
4 | CC[C@H](C)[C@H](NC(=O)CN)C(=O)NCC(=O)N[C@@H](CCCCN)C(=O)N[C@@H](Cc1ccccc1)C(=O)N[C@@H](CC(C)C)C(=O)N[C@@H](CCCCN)C(=O)N[C@@H](CCCCN)C(=O)N[C@@H](C)C(=O)N[C@@H](CCCCN)C(=O)N[C@]1(C)CCCCCCC(O)C(O)CCC[C@@](C)(C(=O)N[C@H](C(=O)N[C@@H](CC(C)C)C(=O)N[C@@H](CCCCN)C(=O)N[C@@H](CCCCN)C(N)=O)[C@@H](C)CC)NC(=O)[C@H](C(C)C)NC(=O)[C@H](Cc2ccccc2)NC(=O)[C@H](C)NC(=O)[C@H](CCCCN)NC(=O)CNC(=O)[C@H](Cc2ccccc2)NC1=O (stereo partly shown) [PexDiol 5] | 1.6 µg/mL (≈ 0.628 µM) | >50 µg/mL | 3.1 µg/mL (≈ 1.22 µM) |  |  | 3.1 µg/mL (≈ 1.22 µM) | 1.6 µg/mL (≈ 0.628 µM) | significant hemolytic activity
5 | CC[C@H](C)[C@H](NC(=O)CN)C(=O)NCC(=O)N[C@@H](CCCCN)C(=O)N[C@@H](Cc1ccccc1)C(=O)N[C@@H](CC(C)C)C(=O)N[C@@H](CCCCN)C(=O)N[C@@H](CCCCN)C(=O)N[C@@H](C)C(=O)N[C@@H](CCCCN)C(=O)N[C@]1(C)CCCCCCC=CCCC[C@@](C)(C(=O)N[C@H](C(=O)N[C@@H](CC(C)C)C(=O)N[C@@H](CCCCN)C(=O)N[C@@H](CCCCN)C(N)=O)[C@@H](C)CC)NC(=O)[C@H](C(C)C)NC(=O)[C@H](Cc2ccccc2)NC(=O)[C@H](C)NC(=O)[C@H](CCCCN)NC(=O)CNC(=O)[C@H](Cc2ccccc2)NC1=O [PexStap 5] (H-GIGKFLKKAK[R8]FGKAFV[S5]ILKK-NH2; staple 11-18; N-terminus assumed) | 1.6 µg/mL (≈ 0.637 µM) | >50 µg/mL | 1.6 µg/mL (≈ 0.637 µM) |  | around 83% | 3.1 µg/mL (≈ 1.23 µM) | 1.6 µg/mL (≈ 0.637 µM) | higher levels of hemolytic activity when compared to PexStap2 and PexStap6
6 | CC[C@H](C)[C@H](NC(=O)CN)C(=O)NCC(=O)N[C@@H](CCCCN)C(=O)N[C@@H](Cc1ccccc1)C(=O)N[C@@H](CC(C)C)C(=O)N[C@@H](CCCCN)C(=O)N[C@@H](CCCCN)C(=O)N[C@@H](C)C(=O)N[C@@H](CCCCN)C(=O)N[C@@H](CCCCN)C(=O)N[C@]1(C)CCCCCCC=CCCC[C@@](C)(C(=O)N[C@@H](CC(C)C)C(=O)N[C@@H](CCCCN)C(=O)N[C@@H](CCCCN)C(N)=O)NC(=O)[C@H](CCCCN)NC(=O)[C@H](C(C)C)NC(=O)[C@H](Cc2ccccc2)NC(=O)[C@H](C)NC(=O)[C@H](CCCCN)NC(=O)CNC1=O [PexStap 6] (H-GIGKFLKKAKK[R8]GKAFVK[S5]LKK-NH2; staple 12-19; N-terminus assumed) | 3.1 µg/mL (≈ 1.24 µM) | >50 µg/mL | 6.3 µg/mL (≈ 2.51 µM) |  |  | 3.1 µg/mL (≈ 1.24 µM) | 1.6 µg/mL (≈ 0.638 µM) | 
7 | GIGKFLKKAKKFGKAFVKILKK-NH2 [Pexiganan, reference compound] | 3.3 µg/mL | >50 µg/mL | 3.1 µg/mL |  |  | 6.3 µg/mL | 1.6 µg/mL | no hemolysis
